According to patent publication US9018207B2, “Method of treatment or prophylaxis” (Spinifex Pharmaceuticals Pty Ltd, priority 2004, dated 2015):
Where “and” joins values, the source holds several entries; their conditions need not be identical. Identical values can stand only once. Entries after “also recorded” stand apart in the source; their conditions may differ.

How the values were obtained:
Type in all cases: in vivo, Sprague-Dawley (SD) rats
[1] = tested on: rats with a chronic constriction injury (CCI) of the sciatic nerve; assay: Relief of tactile allodynia (von Frey paw withdrawal thresholds) in the ipsilateral (injured) hindpaw of CCI-rats; conditions: for doses required to produce significant relief of tactile allodynia in CCI-rats compared with STZ-diabetic rats: CCI-rats vs STZ-diabetic rats
Procedure: (§1) Adult male Sprague-Dawley (SD) rats were anaesthetized with Zoletil 100® (0.09 ml/200 g) and Xylazil-20™ (0.1 mL/200 g) administered by intraperitoneal (i.p.) injection, and a chronic constriction injury (CCI) of the sciatic nerve was produced according to the method of Bennett and Xie (1988). Briefly, the left common sciatic nerve was exposed at mid-thigh level by blunt dissection through the biceps femoris. Proximal to the trifurcation, 10 mm of nerve was freed of adhering tissue and four loose ligatures (3.0 silk) were tied around the sciatic nerve 1 mm apart). The incision was closed in layers. After surgery, rats received benzylpenicillin (60 mg s.c.) to prevent infection and were kept warm during surgical recovery. Rats were housed singly for 10-14 days prior to AT2 receptor antagonist or vehicle (normal saline) administration. After CCI-surgery, rats were inspected daily with regard to posture of the affected hindpaw, exploring behavior, body weight and water intake, and any signs of autotomy. Whilst under light anaesthesia with CO2/O2 (50:50%), CCI-rats or STZ-diabetic rats received a single bolus injection (200 μL) of one AT2 receptor antagonist (PD123,319 or L-159,686) by the intravenous (i.v.) or the intraperitoneal (i.p.) route, using a 250 μL Hamilton syringe. The test compounds were administered to CCI-rats at 14 days after CCI-surgery and to STZ-diabetic rats at approximately 8-wks after the induction of diabetes with STZ. Relief of tactile (mechanical) allodynia, the defining symptom of neuropathic pain, by each of the test agents, PD123,319 or L-159,686, was quantified using calibrated von Frey filaments as described below. Tactile allodynia was quantified using calibrated von Frey filaments. Rats were placed in wire mesh testing cages (20 cm×20 cm×20 cm) and allowed to acclimatise for approximately […] Von Frey filaments were used to determine the lowest mechanical threshold required for a brisk paw withdrawal reflex. Briefly, the filament that produced the lowest force was applied to the plantar surface of the hindpaw until the filament buckled slightly. Absence of a response after 5 s prompted use of the next filament in an ascending sequence. Filaments used produced a buckling weight of 2, 4, 6, 8, 10, 12, 14, 16, 18 and 20 g and these were calibrated prior to each testing session. […] For CCI-rats, baseline von Frey paw withdrawal thresholds (PWTs) were quantified prior to CCI-surgery, and at 14 days post-surgery immediately prior to drug administration. For STZ-diabetic rats, baseline von Frey PWT values were determined prior to the induction of diabetes with STZ and at 1-2 weekly intervals thereafter for 8 weeks to document the temporal development of tactile allodynia. For all rats, baseline PWTs were the mean of three readings taken, 5 min apart before drug administration and were determined separately for each hindpaw. After administration of each test compound, von Frey PWTs were determined at the following post-dosing times: 0.08, 0.25, 0.5, 0.75, 1, 1.25, 1.5, 2 and 3 h. Paw withdrawal thresholds (PWTs; g) were plotted against time to construct response versus time curves for each of the two test compounds (PD123,319 and L-159,686) for each dose and dosing route. Whilst adult male SD rats were anaesthetized with 3% isoflurane: 97% oxygen, four loose ligatures were tied around one sciatic nerve to produce a unilateral chronic constriction injury (CCI) according to the method of Bennett and Xie (1988, Pain 33: 87-107). Briefly, the left common sciatic nerve was exposed at mid-thigh level by blunt dissection through the biceps femoris. Proximal to the trifurcation, 10 mm of nerve was freed of adhering tissue and four loose ligatures (3.0 silk) were tied around the sciatic nerve 1 mm apart). The incision was closed in layers. After surgery, rats received benzylpenicillin (60 mg s.c.) to prevent infection and were kept warm during surgical recovery. […]

[2] = tested on: rats with a chronic constriction injury (CCI) of the sciatic nerve; assay: Antinociception (von Frey paw withdrawal thresholds) in the contralateral hindpaw of CCI-rats
Procedure: as §1, with “87-107).” for “87-107). Briefly, the left common sciatic nerve was exposed at mid-thigh level by blunt dissection through the biceps femoris. Proximal to the trifurcation, 10 mm of nerve was freed of adhering tissue and four loose ligatures (3.0 silk) were tied around the sciatic nerve 1 mm apart). The incision was closed in layers. After surgery, rats received benzylpenicillin (60 mg s.c.) to prevent infection and were kept warm during surgical recovery.”

STZ-diabetic rats = assay: Relief of tactile allodynia (von Frey paw withdrawal thresholds) in the hindpaws of STZ-diabetic rats (model of PDN); conditions: for relief of tactile allodynia (summary in discussion): STZ-diabetic rat model of PDN; for relief of tactile allodynia (summary in discussion) / onset of anti-allodynia (summary in discussion): single i.p. bolus doses; for reversal of tactile allodynia in the hindpaws: i.p., higher doses tested
Procedure: Adult male SD rats were anaesthetized in a manner similar to that described above, to facilitate insertion of a polyethylene cannula (previously filled with 0.1 ml of sterile saline) into the right common jugular vein. Jugular vein cannulae were tested for correct placement by the withdrawal of a small amount of blood. Diabetes was induced following an acute i.v. injection of streptozotocin (STZ) (80 mg/kg) in 0.1 M citrate buffer (pH 4.5) into the jugular vein. Diabetes was confirmed by monitoring the water intake and blood glucose concentration in individual rats. Blood glucose was monitored using either (Glucostix™) or a Precision QID™ test kit.
Consistent with previous studies in the literature (Calcutt et al., 1996, Pain. 68(2-3):293-9), rats that drank more than 100 mL of water per day by 10 days post-STZ injection, were classified as diabetic, and only rats with blood glucose concentrations exceeding 15 mM were included in the subsequent experiments. By comparison, the water intake of control non-diabetic rats was approximately 20 mL per day and blood glucose concentrations were in the range 5-6 mM, consistent with the literature (Calcutt et al., 1996, supra).
Whilst under light anaesthesia with CO2/O2 (50:50%), CCI-rats or STZ-diabetic rats received a single bolus injection (200 μL) of one AT2 receptor antagonist (PD123,319 or L-159,686) by the intravenous (i.v.) or the intraperitoneal (i.p.) route, using a 250 μL Hamilton syringe. The test compounds were administered to CCI-rats at 14 days after CCI-surgery and to STZ-diabetic rats at approximately 8-wks after the induction of diabetes with STZ. Relief of tactile (mechanical) allodynia, the defining symptom of neuropathic pain, by each of the test agents, PD123,319 or L-159,686, was quantified using calibrated von Frey filaments as described below.
Tactile allodynia was quantified using calibrated von Frey filaments. Rats were placed in wire mesh testing cages (20 cm×20 cm×20 cm) and allowed to acclimatise for approximately […] Von Frey filaments were used to determine the lowest mechanical threshold required for a brisk paw withdrawal reflex. Briefly, the filament that produced the lowest force was applied to the plantar surface of the hindpaw until the filament buckled slightly. Absence of a response after 5 s prompted use of the next filament in an ascending sequence. Filaments used produced a buckling weight of 2, 4, 6, 8, 10, 12, 14, 16, 18 and 20 g and these were calibrated prior to each testing session.
For CCI-rats, baseline von Frey paw withdrawal thresholds (PWTs) were quantified prior to CCI-surgery, and at 14 days post-surgery immediately prior to drug administration. For STZ-diabetic rats, baseline von Frey PWT values were determined prior to the induction of diabetes with STZ and at 1-2 weekly intervals thereafter for 8 weeks to document the temporal development of tactile allodynia. For all rats, baseline PWTs were the mean of three readings taken, 5 min apart before drug administration and were determined separately for each hindpaw. After administration of each test compound, von Frey PWTs were determined at the following post-dosing times: 0.08, 0.25, 0.5, 0.75, 1, 1.25, 1.5, 2 and 3 h.
Paw withdrawal thresholds (PWTs; g) were plotted against time to construct response versus time curves for each of the two test compounds (PD123,319 and L-159,686) for each dose and dosing route.
Whilst adult male SD rats were anaesthetized with 3% isoflurane: 97% oxygen, a short polyethylene cannula (0.4 mm ID, 0.8 mm OD) was inserted into the jugular vein to facilitate the intravenous (i.v) administration of a single dose of STZ (75 mg/kg). After removal of the i.v. cannula, the jugular vein was tied off, the wound was closed and topical bupivacaine was applied. Rats received benzylpenicillin (60 mg s.c.) to prevent infection and were kept warm during surgical recovery. […]

[3] = tested on: rats with a chronic constriction injury (CCI) of the sciatic nerve; assay: Relief of tactile allodynia (von Frey paw withdrawal thresholds) in the ipsilateral (injured) hindpaw of CCI-rats; conditions: oral bolus 1 mg/kg vs same dose i.p.
[4] = CCI-rats, sodium salt, i.p. bolus 0.003 to 10 mg/kg
[5] = STZ-diabetic rats, sodium salt, i.p. bolus 0.0003 to 3 mg/kg
[6] = CCI-rats, i.p. bolus 0.03 to 3 mg/kg
[7] = STZ-diabetic rats, i.p. bolus 0.001 to 3.0 μg/kg

SMILES: CCc1nc2ccc(N(Cc3ccccc3)C(=O)c3cccs3)cc2c(=O)n1Cc1ccc(-c2ccccc2-c2nn[nH]n2)cc1.[Na] [L-161,638 (sodium salt), thiophene-2-carboxylic Acid benzyl-{2-ethyl-4-oxo-3-[2′-(2H-tetrazol-5yl)-biphenyl-4-ylmethyl]-3,4-dihydro-quinazolin-6-yl}-amide Sodium Salt]
- doses required to produce significant relief of tactile allodynia in CCI-rats compared with STZ-diabetic rats [1]: considerably larger doses
- anti-allodynia (relief of tactile allodynia) in the ipsilateral hindpaw [1, 4]: dose-dependent relief of tactile allodynia
- durations of action [1, 4]: 1.5 to 3 h
- onset of anti-allodynia in the ipsilateral hindpaw [1, 4]: rapid onset
- time of peak responses post-dosing [1, 4]: 0.5 to 0.75 h
- anti-allodynia (relief of tactile allodynia) in the ipsilateral hindpaw ([1]; CCI-rats, sodium salt, i.p. bolus 0.003 to 10 mg/kg, listed as L-161,638, Sodium Salt): dose-dependent anti-allodynia
- antinociception in the contralateral hindpaw ([2]; sodium salt, i.p. doses up to 10 mg/kg): insignificant antinociception
- relief of tactile allodynia (summary in discussion) (STZ-diabetic rats): potent relief of tactile allodynia
- reversal of tactile allodynia in the hindpaws (STZ-diabetic rats; STZ-diabetic rats): fully reversed
- onset of anti-allodynia (summary in discussion) (STZ-diabetic rats; STZ-diabetic rats): relatively rapid onset
- duration of action (STZ-diabetic rats; STZ-diabetic rats, sodium salt, i.p. 3 mg/kg dose): > 3 h
- onset of relief of tactile allodynia (STZ-diabetic rats; [5]): rapid onset
- relief of tactile allodynia (STZ-diabetic rats; [5]): dose-dependent relief of tactile allodynia
- time of peak effects post-dosing (STZ-diabetic rats; [5]): 0.25 to 0.75 h
- relief of tactile allodynia (STZ-diabetic rats; STZ-diabetic rats, sodium salt, i.p. bolus 0.0003 to 3 mg/kg, listed as L-161,638, Sodium Salt): relief of tactile allodynia
- duration of action (STZ-diabetic rats; STZ-diabetic rats, sodium salt, i.p. doses in the range 0.0003-0.03 μg/kg): 3 h

SMILES: Cc1cc(Cn2cnc3c2C[C@@H](C(=O)O)N(C(=O)C(c2ccccc2)c2ccccc2)C3)ccc1N(C)C [PD-123,319]
- relief of tactile allodynia in the ipsilateral (injured) hindpaw ([1]; CCI-rats, single bolus i.p. 1-10 mg/kg, n=3-4): dose-dependent (A) relief of tactile allodynia
- relief of tactile allodynia in the ipsilateral (injured) hindpaw ([1]; CCI-rats, single bolus i.v. 0.1-0.3 mg/kg, n=2): dose-dependent (A) relief of tactile allodynia
- antinociception in the contralateral hindpaw ([2]; single bolus i.p. 1-10 mg/kg, n=3-4): antinociception in the contralateral hindpaw
- antinociception in the contralateral hindpaw ([2]; single bolus i.v. 0.1-0.3 mg/kg, n=2): antinociception in the contralateral hindpaw
- relief of tactile allodynia (STZ-diabetic rats; STZ-diabetic rats (8-wks after STZ), single bolus i.p. 0.3-3.0 mg/kg, n=4): dose-dependent relief of tactile allodynia

SMILES: COc1ccc(Cn2cnc3c2C[C@@H](C(=O)O)N(C(=O)C(c2ccccc2)c2ccccc2)C3)cc1C [PD-121,981]
- doses required to produce significant relief of tactile allodynia in CCI-rats compared with STZ-diabetic rats [1]: considerably larger doses
- duration of action ([1]; CCI-rats, 1 mg/kg, irrespective of dosing route (oral or i.p.)): 3 h
- anti-allodynia (relief of tactile allodynia) in the ipsilateral hindpaw [1, 6]: dose-dependent anti-allodynia; also recorded: dose-dependent relief of tactile allodynia
- durations of action [1, 6]: 2 to 3 h
- onset of anti-allodynia in the ipsilateral hindpaw [1, 6]: rapid onset
- time of peak anti-allodynia in the ipsilateral hindpaw post-dosing [1, 6]: 0.5 to 0.75 h and 0.5 to 1.0 h
- extent and duration of the anti-allodynic response, oral compared with i.p. route [3]: similar
- antinociception in the contralateral hindpaw ([2]; i.p. doses up to 3 mg/kg): insignificant antinociception
- relief of tactile allodynia (summary in discussion) (STZ-diabetic rats): potent relief of tactile allodynia
- duration of action (STZ-diabetic rats; STZ-diabetic rats, 0.1 μg/kg, irrespective of dosing route (oral or i.p.)): exceeded 3 h
- onset of action (STZ-diabetic rats; [7]): rapid onset of action
- relief of tactile allodynia (STZ-diabetic rats; [7]): dose-dependent relief of tactile allodynia
- time of peak anti-allodynia post-dosing (STZ-diabetic rats; [7]): 0.5 to 1.0 h
- duration of action (STZ-diabetic rats; STZ-diabetic rats, i.p. doses in the range 0.03-3.0 μg/kg): > 3 h
- reversal of tactile allodynia in the hindpaws (STZ-diabetic rats; STZ-diabetic rats): fully reversed
- extent and duration of the anti-allodynic response, oral compared with i.p. route (STZ-diabetic rats; STZ-diabetic rats, oral bolus 0.1 μg/kg vs same dose i.p.): similar
- onset of anti-allodynia (summary in discussion) (STZ-diabetic rats; STZ-diabetic rats): relatively rapid onset
